Here are results for 59 compounds from patent US20260284051A1, “METHIONINE ADENOSYLTRANSFERASE 2A (MAT2A) INHIBITOR COMBINATIONS AND USES THEREOF” (INSILICO MEDICINE IP LIMITED, priority 2023, published 2026).

pIC50: −log10 of the molar value. A value given as a limit tells only on which side of the number the result lay.

In general, pIC50 refers to the negative decadic logarithm of the IC50, by convention in mol/L.

In the first assay the target is MAT2A (Homo sapiens, UniProt P31153). The assay is described as follows: MAT2A Biochemical Assay. The note with it: read-out: MAT2A enzymatic IC50. As for the experimental part: Example A: MAT2A Biochemical Assay
Sequence of MAT2A (P31153 whole entry, species assumed): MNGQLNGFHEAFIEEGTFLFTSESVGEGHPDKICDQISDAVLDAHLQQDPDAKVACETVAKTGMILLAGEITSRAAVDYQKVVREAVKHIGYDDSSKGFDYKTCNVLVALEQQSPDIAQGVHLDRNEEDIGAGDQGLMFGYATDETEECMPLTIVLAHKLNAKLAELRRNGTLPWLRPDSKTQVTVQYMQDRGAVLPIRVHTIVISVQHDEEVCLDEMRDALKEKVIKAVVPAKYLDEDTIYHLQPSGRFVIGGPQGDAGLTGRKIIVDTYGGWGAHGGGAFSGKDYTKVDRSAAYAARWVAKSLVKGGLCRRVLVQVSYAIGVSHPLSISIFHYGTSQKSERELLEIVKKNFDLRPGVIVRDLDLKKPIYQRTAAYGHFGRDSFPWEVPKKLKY
Compounds described herein were tested as follows:
• (1). Prepared 1×Assay buffer. • (2). Preparation of compound concentration gradient: the compounds test condition were […], 3-fold dilution, 10 doses, singlet or duplicate. 100x concentration compounds were prepared in 384-well plate. Then used Echo 550 to transfer 250 nl to a 384-reaction plate for later use. Added 250 nl of 100% DMSO to the negative and positive control wells. • (3). Prepared 1.67× final concentration enzyme solution with 1×Assay buffer. • (4). Added 15 μl of 1.67× Enzyme solution to the compound wells and positive control wells; added 15 μl of 1×Assay buffer to the negative control wells. • (5). Centrifuged at 1000 rpm for 30 seconds and incubate for 15 minutes. • (6). Prepared 2.5× final concentration Substrate mix solution with 1×Assay buffer. • (7). Added 10 μl of 2.5× final concentration Substrate mix solution to start the reaction. • (8). Centrifuged at 1000 rpm for 30 seconds and incubate for 150 minutes. • (9). Added […] Biomol Green to stop the reaction, centrifuge at 1000 rpm for 30 seconds and incubate for 15 minutes. read O.D.620, process data.
• (1) Using GraphPad Prism 5.
[formula] • (3) Max signal was obtained from the positive control wells. • (4) Min signal was obtained from the negative control wells.
Turning to `C#CCNc1nc(=O)n(-c2cccnc2)c2nc(C(F)(F)F)ncc12` [Example 61], the negative logarithm of the IC50 (pIC50) was over 7.30. Still for that read-out and setting: to `C#CC1(Nc2nc(=O)n(-c3cccnc3C)c3cc(Cl)cc(OC)c23)CC1` [Example 27] belongs over 7.30.

Consider `C#CCNc1nc(=O)n(-c2cccnc2C)c2nc(C(F)(F)F)cc(OC)c12` [Example 42], for which the pIC50 was over 7.30. Same read-out and setting: to `C#CC1(Nc2nc(=O)n(-c3cccnc3)c3cc(Cl)ccc23)CC1` [Example 4] belongs over 7.30; to `C=CC1(Nc2nc(=O)n(-c3cccnc3C)c3cc(Cl)cc(OC)c23)CC1` [Example 75], over 7.30; to `C#CC1(Nc2nc(=O)n(-c3cccnc3)c3cc(Cl)cc(OC)c23)CC1` [Example 66], over 7.30. Consider `C=CCNc1nc(=O)n(-c2cccnc2C)c2cc(Cl)cc(OC)c12` [Example 74], for which the pIC50 is over 7.30. Still for that read-out and setting: to `C#CCNc1nc(=O)n(-c2cccnc2C)c2cc(C(F)(F)F)ccc12` [Example 33] belongs over 7.30; to `C#CC1(Nc2nc(=O)n(-c3cccnc3)c3nc(C(F)(F)F)ccc23)CC1` [Example 68], over 7.30. In the case of `C#CCNc1nc(=O)n(-c2cccnc2C)c2cc(Cl)cc(F)c12` [Example 30], the negative logarithm of the IC50 (pIC50) is over 7.30. Same read-out and setting: as for `C#CC1(Nc2nc(=O)n(-c3cnccn3)c3cc(Cl)cc(OC)c23)CC1` [Example 24], the figure is over 7.30; as for `C#CC1(Nc2nc(=O)n(-c3cccnc3C)c3cc(Cl)cc(F)c23)CC1` [Example 31], over 7.30. For `C#CC(C)Nc1nc(=O)n(-c2cccnc2C)c2cc(Cl)cc(OC)c12` (stereo not drawn) [Example 26], the negative-log IC50 (pIC50) is over 7.30. The same measure, in the same setting: as for `C#CC1(Nc2nc(=O)n(-c3cccnn3)c3nc(C(F)(F)F)ccc23)CC1` [Example 70], the figure is over 7.30; as for `C#CCNc1nc(=O)n(-c2nccnc2C)c2cc(C(F)(F)F)cc(OC)c12` [Example 48], over 7.30.

Regarding `C#CCNc1nc(=O)n(-c2nccnc2C)c2cc(Cl)cc(OC)c12` [Example 23], the pIC50 was over 7.30.

`C#CCNc1nc(=O)n(-c2cccnc2C)c2cc(Br)cc(OC)c12` [Example 19]: the negative-log IC50 (pIC50) was over 7.30.

For `C#CCNc1nc(=O)n(-c2cnccn2)c2cc(C(F)(F)F)cc(OC)c12` [Example 54], the negative-log IC50 (pIC50) was over 7.30.

As for `C#CC(C)Nc1nc(=O)n(-c2cccnc2C)c2cc(C(F)(F)F)cc(OC)c12` (stereo not drawn) [Example 37], the pIC50 was over 7.30. `C#CCCNc1nc(=O)n(-c2ccccc2Cl)c2cc(Cl)ccc12` [Example 8]: the pIC50 was over 7.30. The same measure, in the same setting: to `C=CCNc1nc(=O)n(-c2cccnc2C)c2cc(C(F)(F)F)cc(OC)c12` [Example 77] belongs over 7.30; to `C#CC1(Nc2nc(=O)n(-c3cccnc3)c3cc(C(F)(F)F)cc(OC)c23)CC1` [Example 47], over 7.30.

`C#CC1(Nc2nc(=O)n(-c3nccnc3C)c3cc(Cl)cc(OC)c23)CC1` [Example 25]: the negative-log IC50 (pIC50) was over 7.30. The same measure, in the same setting: to `C#CC1(Nc2nc(=O)n(-c3cccnc3C)c3cc(C(F)(F)F)cc(OC)c23)CCC1` [Example 50] belongs over 7.30; to `C#CC1(Nc2nc(=O)n(-c3cccnc3)c3cc(C(F)(F)F)cnc23)CC1` [Example 56], under 6.00; to `C#CCNc1nc(=O)n(-c2cccnc2)c2cc(Cl)cc(OC)c12` [Example 20], over 7.30.

Regarding `C#CCNc1nc(=O)n(-c2cccnn2)c2nc(C(F)(F)F)ccc12` [Example 63], the pIC50 is over 7.30. For `C#CC1(Nc2nc(=O)n(-c3cccnc3C)c3cc(C(F)(F)F)ccc23)CC1` [Example 46], the negative-log IC50 (pIC50) is over 7.30. Regarding `C#CCNc1nc(=O)n(-c2cccnc2)c2cc(Br)ccc12` [Example 18], the negative logarithm of the IC50 (pIC50) is over 7.30. Still for that read-out and setting: to `C#CCNc1nc(=O)n(-c2cnccn2)c2cc(C(F)(F)F)ccc12` [Example 53] belongs over 7.30; to `C#CCCCNc1nc(=O)n(-c2cccnc2)c2cc(C(F)(F)F)ccc12` [Example 6], over 7.30.

Take `C#CC1(Nc2nc(=O)n(-c3cccnc3C)c3cc(C(F)(F)F)cc(OC)c23)CC1` [Example 49]: the pIC50 is over 7.30.

As for `C#CCNc1nc(=O)n(-c2cnccn2)c2cc(Cl)cc(OC)c12` [Example 21], the negative-log IC50 (pIC50) was over 7.30.

Consider `C#CCNc1nc(=O)n(-c2cccnc2C(C)C)c2cc(C(F)(F)F)ccc12` [Example 45], for which the negative logarithm of the IC50 (pIC50) was over 7.30. With `C#CCNc1nc(=O)n(-c2cccnc2C)c2cc(Cl)ccc12` [Example 15], the pIC50 is over 7.30. On to `C#CCNc1nc(=O)n(-c2c(C)ccnc2C)c2cc(C(F)(F)F)ccc12` [Example 52], for which the pIC50 was over 7.30. Still for that read-out and setting: to `C#CCNc1nc(=O)n(-c2cccnc2)c2nc(C(F)(F)F)ccc12` [Example 57] belongs over 7.30; to `C#CCNc1nc(=O)n(-c2cccnc2)c2cc(C(F)(F)F)ccc12` [Example 7], over 7.30. The same measure, in the same setting: as for `O=c1nc(NCC#CC2CC2)c2ccc(Cl)cc2n1-c1cccnc1` [Example 2], the figure is over 7.30; as for `C#CCNc1nc(=O)n(-c2cnccn2)c2cc(Cl)ccc12` [Example 17], over 7.30; as for `C#CCNc1nc(=O)n(-c2cccnc2)c2cc(Cl)ccc12` [Example 1], over 7.30. As to `C#CC(C)Nc1nc(=O)n(-c2cccnc2)c2cc(C(F)(F)F)cc(OC)c12` (stereo not drawn) [Example 35], the negative logarithm of the IC50 (pIC50) was over 7.30.

`C#CCNc1nc(=O)n(-c2cccnc2)c2cc(C(F)(F)F)cc(OCF)c12` [Example 38]: the negative-log IC50 (pIC50) was over 7.30. The same measure, in the same setting: to `C#CC1(Nc2nc(=O)n(-c3cccnc3C)c3cc(Cl)cc(OC)c23)CCC1` [Example 28] belongs over 7.30; to `C#CCN(C)c1nc(=O)n(-c2cccnc2)c2cc(C(F)(F)F)ccc12` [Example 51], over 7.30; to `C#CCNc1nc(=O)n(-c2cccnc2C)c2cc(Cl)cc(OC)c12` [Example 22], over 7.30. As for `C#CC1(Nc2nc(=O)n(-c3cccnc3C)c3cc(Cl)ccc23)CC1` [Example 16], the pIC50 was over 7.30. For the compound `C#CC1(Nc2nc(=O)n(-c3cnccn3)c3cc(C(F)(F)F)ccc23)CC1` [Example 69], the pIC50 was over 7.30. As for `C#CC(C)Nc1nc(=O)n(-c2cccnc2)c2cc(C(F)(F)F)ccc12` (stereo not drawn) [Example 64], the pIC50 was over 7.30. Still for that read-out and setting: to `C=CCNc1nc(=O)n(-c2cccnc2)c2cc(C(F)(F)F)ccc12` [Example 76] belongs over 7.30; to `C#CC1(Nc2nc(=O)n(-c3cccnc3)c3cc(C(F)(F)F)ccc23)CC1` [Example 67], over 7.30; to `C#CC1CCN(c2nc(=O)n(-c3ccccc3Cl)c3cc(Cl)ccc23)CC1` [Example 13], under 6.00. Take `C#CCNc1nc(=O)n(-c2ccccc2Cl)c2cc(Cl)ccc12` [Example 10]: the pIC50 was over 7.30. Still for that read-out and setting: to `C#CCNc1nc(=O)n(-c2cccnc2)c2cc(Cl)cc(F)c12` [Example 29] belongs over 7.30; to `C#CCNc1nc(=O)n(-c2cccnc2C)c2cc(C(F)(F)F)cc(OC(F)F)c12` [Example 40], over 7.30; to `C=CCNc1nc(=O)n(-c2cccnc2)c2cc(Cl)cc(OC)c12` [Example 73], over 7.30. Turning to `O=c1nc(NCC#CCN2CCOCC2)c2ccc(C(F)(F)F)cc2n1-c1cccnc1` [Example 14], the pIC50 was over 7.30. `C#CCNc1nc(=O)n(-c2cccnc2)c2cc(C(F)(F)F)cc(OC)c12` [Example 34]: the pIC50 was over 7.30.

In another assay the test system is NCI-H838 MTAP null xenografts. Kind of assay: Efficacy study of NCI-H838 human lung cancer xenograft model in NOD SCID mice. It is filed as in vivo. Conditions: MRTX1719 50 mg/kg QD. The text has this: Efficacy Study of NCI-H838 Human Lung Cancer Xenograft Model in NOD SCID Mice Methods:
The NCI-H838 cancer cells were maintained in vitro with RPMI-1640 medium supplemented with 10% fetal bovine serum at 37TC in an atmosphere of 5% CO2 in the air. The cells in exponential growth phase were harvested and quantitated by cell counter before tumor inoculation.
NOD SCID mice, female, 6-8 weeks, weighing approximately 20-22 g, All the mice were purchased from Shanghai Lingchang Bio-Tech Co., Ltd.
Each mouse was inoculated subcutaneously at the right flank with NCI-H838 cells in a 0.1 mL of PBS mixed with Matrigel (1:1) for tumor development (5×10^6 cells/mouse). Dosing was started when the average tumor size reached approximately ~150 mm^3 for the tumor efficacy study with tool and med chem molecules to look for efficacy vs vehicle tumor growth.
Mean tumor volume at dosing start was approximately 146.51 mm^3, with six mice randomized to each treatment group. In the NCI-H838 MTAP null tumor model, mice were dosed orally, once per day (QD) with vehicle, once per day (QD) with Compound 1 at 3, 10 mg/kg, mice were intravenous, once per day (QD) with PRMT5 inhibitor MRTX1719 at 50 mg/kg, or Compound 1 combined with MRTX1719 at each dose level.
On the technique in general: In xenograft studies the graft and the host belong to different species.
For `Cn1ncc(-c2ccc3c(=O)[nH]nc(CN)c3c2)c1-c1c(F)c(Cl)cc(OC2CC2)c1C#N` [MRTX1719, reference compound], the “TGI (%)” value is 81.5%.

Still in this assay, the particulars now being: MRTX1719 50 mg/kg QD; Mean ± SD.
Take `Cn1ncc(-c2ccc3c(=O)[nH]nc(CN)c3c2)c1-c1c(F)c(Cl)cc(OC2CC2)c1C#N` [MRTX1719, reference compound]: the “Tumor volume (mm^3) Final (mean)” value is recorded as 501 ± 69 mm^3.
